# From US9695155B2, “Herbicidal substituted pyrimidinyloxy benzene compounds” (E. I. DU PONT DE NEMOURS AND COMPANY, priority 2013, dated 2017)
# Tests used:
# pigweed [1] = test: Test D postemergence; format: in vivo, Amaranthus retroflexus; conditions: Amaranthus retroflexus, post-emergence
# Procedure, shortened: (§1)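 Solvent/surfactant formulations are sprayed pre (silt loam) or post (1–4 leaf plants, 2–18 cm). Plants stay 7–21 days in controlled conditions before a visual 0–100 score is given.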
# Italian ryegrass = test: Test D postemergence; format: in vivo, Lolium multiflorum; conditions: Lolium multiflorum, post-emergence
# Source text: (§2) Seeds of plant species selected from bluegrass (annual bluegrass, Poa annua), blackgrass (Alopecurus myosuroides), canarygrass (littleseed canarygrass, Phalaris minor), chickweed (common chickweed, Stellaria media), galium (catchweed bedstraw, Galium aparine), bromegrass, downy (downy bromegrass, Bromus tectorum), field poppy (Papaver rhoeas), field violet (Viola arvensis), green foxtail (Setaria viridis), deadnettle (henbit deadnettle, Lamium amplexicaule), Italian ryegrass (Lolium multiflorum), kochia (Kochia scoparia), lambsquarters (Chenopodium album), oilseed rape (Brassica napus), pigweed (Amaranthus retroflexus), chamomile (scentless chamomile, Matricaria inodora), Russian thistle (Salsola kali), speedwell (bird's-eye speedwell, Veronica persica), spring barley (Hordeum vulgare), spring wheat (Triticum aestivum), wild buckwheat (Polygonum convolvulus), wild mustard (Sinapis arvensis), wild oat (Avena fatua), wild radish (Raphanus raphanistrum), windgrass (Apera spica-venti), winter barley (Hordeum vulgare), and winter wheat (Triticum aestivum) were planted into a silt loam soil and treated preemergence with test chemicals formulated in a non-phytotoxic solvent mixture which included a surfactant.
# (§3) At the same time, these species were planted in pots containing Redi-Earth® planting medium (Scotts Company, 14111 Scottslawn Road, Marysville, Ohio 43041) comprising spaghnum peat moss, vermiculite, wetting agent and starter nutrients and treated with postemergence applications of the test chemicals formulated in the same manner. Plants ranged in height from 2 to 18 cm (1- to 4-leaf stage). Treated plants and controls were maintained in a controlled growth environment for 7 to 21 days after which time all species were compared to controls and visually evaluated. Plant response ratings, summarized in Table D, are based on a scale of 0 to 100 where 0 is no effect and 100 is complete control. A dash (-) response means no test result.
# pigweed [2] = test: Test D preemergence; format: in vivo, Amaranthus retroflexus; conditions: Amaranthus retroflexus, pre-emergence
# Procedure, shortened: as §1
# spring barley = test: Test D postemergence; format: in vivo, Hordeum vulgare; conditions: Hordeum vulgare, post-emergence, Postemergence, scale 0 to 100 (0 no effect, 100 complete control), read-out: Plant response rating, Barley, Spring
# Procedure, shortened: as §1
# winter barley = test: Test D postemergence; format: in vivo, Hordeum vulgare; conditions: Hordeum vulgare, post-emergence, Postemergence, scale 0 to 100 (0 no effect, 100 complete control), read-out: Plant response rating, Barley, Winter
# Procedure, shortened: as §1
# chickweed = test: Test D postemergence; format: in vivo, Stellaria media; conditions: Stellaria media, post-emergence
# Procedure, shortened: as §1
# speedwell = test: Test D preemergence; format: in vivo, Veronica persica; conditions: Veronica persica, pre-emergence
# Source text: as §2, §3
# lambsquarters = test: Test D postemergence; format: in vivo, Chenopodium album; conditions: Chenopodium album, post-emergence
# Procedure, shortened: as §1
# wild oat = test: Test D preemergence; format: in vivo, Avena fatua; conditions: Avena fatua, pre-emergence
# Source text: as §2, §3
# wild buckwheat = test: Test D postemergence; format: in vivo, Polygonum convolvulus; conditions: Fallopia convolvulus, post-emergence, Postemergence, scale 0 to 100 (0 no effect, 100 complete control), read-out: Plant response rating, Buckwheat, Wild
# Procedure, shortened: as §1
# field poppy = test: Test D preemergence; format: in vivo, Papaver rhoeas; conditions: Papaver rhoeas, pre-emergence
# Source text: as §2, §3
smiles,measurement,setting,value
"Fc1cccc(Oc2ncc(Cl)cn2)c1-n1cc(C(F)F)nn1 [Compound 141, 5-chloro-2-[2-[4-(difluoromethyl)-1H-1,2,3-triazol-1-yl]-3-fluorophenoxy]pyrimidine]",pest or weed control at 16 g/ha,"pigweed [1]; 16 g ai/ha, scale 0-100, read-out: Plant response rating, Pigweed",98%
same,pest or weed control at 31 g/ha,"pigweed [1]; 31 g ai/ha, scale 0 to 100 (0 no effect, 100 complete control), read-out: Plant response rating, Pigweed",98%
same,pest or weed control at 62 g/ha,"pigweed [1]; 62 g ai/ha, scale 0 to 100 (0 no effect, 100 complete control), read-out: Plant response rating, Pigweed",100%
same,pest or weed control at 125 g/ha,"pigweed [1]; 125 g ai/ha, scale 0 to 100 (0 no effect, 100 complete control), read-out: Plant response rating, Pigweed",100%
same,pest or weed control at 16 g/ha,"Italian ryegrass; 16 g ai/ha, scale 0-100, read-out: Plant response rating, Ryegrass, Italian",5%
same,pest or weed control at 31 g/ha,"Italian ryegrass; 31 g ai/ha, scale 0 to 100 (0 no effect, 100 complete control), read-out: Plant response rating, Ryegrass, Italian",15%
same,pest or weed control at 62 g/ha,"Italian ryegrass; 62 g ai/ha, scale 0 to 100 (0 no effect, 100 complete control), read-out: Plant response rating, Ryegrass, Italian",20%
same,pest or weed control at 125 g/ha,"Italian ryegrass; 125 g ai/ha, scale 0 to 100 (0 no effect, 100 complete control), read-out: Plant response rating, Ryegrass, Italian",25%
same,pest or weed control at 16 g/ha,"pigweed [2]; 16 g ai/ha, scale 0 (no effect) to 100 (complete control), read-out: Plant response rating, Pigweed",98%
same,pest or weed control at 31 g/ha,"pigweed [2]; 31 g ai/ha, scale 0 (no effect) to 100 (complete control), read-out: Plant response rating, Pigweed",100%
same,pest or weed control at 62 g/ha,"pigweed [2]; 62 g ai/ha, scale 0-100, read-out: Plant response rating, Pigweed",100%
same,pest or weed control at 125 g/ha,"pigweed [2]; 125 g ai/ha, scale 0-100, read-out: Plant response rating, Pigweed",100%
same,plant injury at 16 g/ha,spring barley; 16 g ai/ha,10%
same,plant injury at 31 g/ha,spring barley; 31 g ai/ha,20%
same,plant injury at 62 g/ha,spring barley; 62 g ai/ha,25%
same,plant injury at 125 g/ha,spring barley; 125 g ai/ha,25%
same,plant injury at 16 g/ha,winter barley; 16 g ai/ha,20%
same,plant injury at 31 g/ha,winter barley; 31 g ai/ha,20%
same,plant injury at 62 g/ha,winter barley; 62 g ai/ha,25%
same,plant injury at 125 g/ha,winter barley; 125 g ai/ha,35%
same,pest or weed control at 16 g/ha,"chickweed; 16 g ai/ha, scale 0-100, read-out: Plant response rating, Chickweed",70%
same,pest or weed control at 31 g/ha,"chickweed; 31 g ai/ha, scale 0 to 100 (0 no effect, 100 complete control), read-out: Plant response rating, Chickweed",90%
same,pest or weed control at 62 g/ha,"chickweed; 62 g ai/ha, scale 0 to 100 (0 no effect, 100 complete control), read-out: Plant response rating, Chickweed",95%
same,pest or weed control at 125 g/ha,"chickweed; 125 g ai/ha, scale 0 to 100 (0 no effect, 100 complete control), read-out: Plant response rating, Chickweed",100%
same,pest or weed control at 16 g/ha,"speedwell; 16 g ai/ha, scale 0 (no effect) to 100 (complete control), read-out: Plant response rating, Speedwell",100%
same,pest or weed control at 31 g/ha,"speedwell; 31 g ai/ha, scale 0 (no effect) to 100 (complete control), read-out: Plant response rating, Speedwell",100%
same,pest or weed control at 62 g/ha,"speedwell; 62 g ai/ha, scale 0-100, read-out: Plant response rating, Speedwell",100%
same,pest or weed control at 125 g/ha,"speedwell; 125 g ai/ha, scale 0-100, read-out: Plant response rating, Speedwell",100%
same,pest or weed control at 16 g/ha,"lambsquarters; 16 g ai/ha, scale 0-100, read-out: Plant response rating, Lambsquarters",80%
same,pest or weed control at 31 g/ha,"lambsquarters; 31 g ai/ha, scale 0 to 100 (0 no effect, 100 complete control), read-out: Plant response rating, Lambsquarters",95%
same,pest or weed control at 62 g/ha,"lambsquarters; 62 g ai/ha, scale 0 to 100 (0 no effect, 100 complete control), read-out: Plant response rating, Lambsquarters",95%
same,pest or weed control at 125 g/ha,"lambsquarters; 125 g ai/ha, scale 0 to 100 (0 no effect, 100 complete control), read-out: Plant response rating, Lambsquarters",98%
same,pest or weed control at 16 g/ha,"wild oat; 16 g ai/ha, scale 0 (no effect) to 100 (complete control), read-out: Plant response rating, Oat, Wild",30%
same,pest or weed control at 31 g/ha,"wild oat; 31 g ai/ha, scale 0-100, read-out: Plant response rating, Oat, Wild",65%
same,pest or weed control at 62 g/ha,"wild oat; 62 g ai/ha, scale 0-100, read-out: Plant response rating, Oat, Wild",80%
same,pest or weed control at 125 g/ha,"wild oat; 125 g ai/ha, scale 0-100, read-out: Plant response rating, Oat, Wild",98%
same,pest or weed control at 16 g/ha,wild buckwheat; 16 g ai/ha,100%
same,pest or weed control at 31 g/ha,wild buckwheat; 31 g ai/ha,100%
same,pest or weed control at 62 g/ha,wild buckwheat; 62 g ai/ha,100%
same,pest or weed control at 125 g/ha,wild buckwheat; 125 g ai/ha,100%
same,pest or weed control at 16 g/ha,"field poppy; 16 g ai/ha, scale 0 (no effect) to 100 (complete control), read-out: Plant response rating, Field Poppy",98%
same,pest or weed control at 31 g/ha,"field poppy; 31 g ai/ha, scale 0-100, read-out: Plant response rating, Field Poppy",100%
same,pest or weed control at 62 g/ha,"field poppy; 62 g ai/ha, scale 0-100, read-out: Plant response rating, Field Poppy",100%
same,pest or weed control at 125 g/ha,"field poppy; 125 g ai/ha, scale 0-100, read-out: Plant response rating, Field Poppy",100%
